From patent US20250041286A1, “CANCER TREATMENT USING KETOTIFEN IN COMBINATION WITH A CHECKPOINT INHIBITOR” (Materia Therapeutics Inc., priority 2021, published 2025)

Tests used:
[1] = tested on: MCA205 tumors; assay: Tumor growth (volume, mass) under daily ketotifen, fibrosarcoma model; type: in vivo, mouse; settings: ketotifen 1, 5, 10 and 25 mg/kg i.p. once a day for 8 days
Experimental: (§1) Two mouse models of distinct sarcoma subtypes, fibrosarcoma (MCA205 cells) and osteosarcoma (K7M2wt cells), were used in this study.
(§2) MCA205, a mouse fibrosarcoma cell line (SCC173, Millipore), was cultured in RPMI-1640 expansion medium containing 2 mM L-glutamine, 1 mM sodium pyruvate, 10% fetal bovine serum, 1× non-essential amino acids (TMS-001-C, Sigma), 1% antibiotics (A5955, Sigma), and 1×β-mercaptoethanol. K7M2wt, a mouse osteosarcoma cell line (CRL2836™, ATCC®), was cultured in DMEM expansion medium supplemented with 10% FBS and 1% antibiotics. All cells were maintained at 37° C./5% CO2.
(§3) A fibrosarcoma syngeneic tumor model was generated by subcutaneous implantation of 2.5×10^5 MCA205 cells in 50 μL of serum-free medium into the flank of 6-week old C57BL/6 female mice. A osteosarcoma syngeneic tumor model was generated by implanting K7M2wt tumor chunks into the fat pad of 6-week old BALB/c female mice. […]
(§4) Each treatment group of 4-7 mice received subtherapeutic doses of ketotifen (1, 5, 10 and 25 mg/kg) for a period of 8 days. […] Planar dimensions (x, y) of tumor were monitored every 2-3 days using a digital caliper and tumor volume was estimated from the volume of an ellipsoid and assuming that the third dimension, z, is equal to sqrt(x y).

[2] = tested on: K7M2wt tumors; assay: Atomic force microscopy (AFM) elastic modulus of tumor samples ex vivo; type: in vivo, mouse; settings: ketotifen-treated K7M2wt tumors, microscopic scale
Experimental: Following the confirmation of the presence of MCs in human sarcoma samples and the in vitro characterization of the MC-fibroblast interaction, it was assessed whether inhibition of MC degranulation would reduce fibrosis in murine sarcoma models. The impact of MC degranulation by treating MCA205 fibrosarcoma and K7M2wt osteosarcoma tumors with ketotifen was assessed. Ketotifen was administered in four different doses (1, 5, 10, and 25 mg/kg), once a day by i.p. injection for a period of 8 days (as shown in FIG. 4A). […] The effect of ketotifen on tumor stiffness in vivo was monitored using shear wave elastography (SWE). SWE measurements were performed before, after 3 days (for MCA205) or 4 days (for K7M2wt) of ketotifen treatment and upon study completion. […] The pertinent reduction in tumor stiffness was further validated ex vivo at the microscopic tissue scale using atomic force microscopy (AFM) of tumor samples. […] In FIG. 19B, the left peak of lower elastic modulus corresponds to compliant cancer cells, while the tail of higher elastic modulus (dashed rectangles) represents the contribution of the stiffer matrix components, mainly collagen. Data are presented as mean±SE. Statistical analyses were performed by comparing means between two independent groups using the ordinary one-way ANOVA test.

[3] = tested on: MCA205 tumors; assay: Collagen staining with Picrosirius red; type: in vivo, mouse; settings: 10 mg/kg ketotifen
Experimental: (§5) As tissue stiffness is caused in part by the degree of collagen expression by cancer associated fibroblasts (CAFs) and crosslinking, the intratumoral collagen levels were evaluated by histological staining using Picrosirius red.
(§6) Briefly, tumors were removed from four mice, washed twice in 1×PBS for 10 min, and incubated with 4% PFA overnight at 4° C. The fixative was aspirated, and samples were washed twice in 1×PBS for 10 min. Tissue samples were dehydrated in successive ethanol steps and xylene followed by paraffin embedding. Serial sections ([…]) of paraffin-embedded tissues were produced using the microtome (Accu-Cut SRM 200 Rotary Microtome, SAKURA), flattened out into water, and allowed to dry overnight at 37° C. Sections were then deparaffinized and rehydrated as routinely processed for histology. Following deparaffinization and rehydration, tissue sections were submerged in Picrosirius red stain for 1 hour at room temperature. Next, tissue sections were rinsed in two changes of acetic acid, followed by two changes of absolute ethanol and finally, mounted with DPX mountant for histology (Sigma). Collagen fibers were stained in red while the remaining tissue was pale yellow.

[4] = tested on: K7M2wt tumors; assay: Collagen staining with Picrosirius red; type: in vivo, mouse; settings: 10 mg/kg ketotifen
Experimental: as §5, §6

[5] = tested on: K7M2wt tumors; assay: Tumor growth (volume, mass) under daily ketotifen, osteosarcoma model; type: in vivo, mouse; settings: daily ketotifen i.p. for 8 days
Experimental: as §1, §2, §3, §4

[6] = tested on: CD117 protein; assay: Western blot against CD117 protein (mast cell number) in tumors; type: in vivo, mouse; settings: subtherapeutic doses of ketotifen
[7] = Mouse body, thymus and spleen weight at conclusion of study; type: in vivo; settings: highest dose (of 1, 5, 10, 25 mg/kg), i.p. once a day for 8 days
Experimental: Each treatment group of 4-7 mice received subtherapeutic doses of ketotifen (1, 5, 10 and 25 mg/kg) for a period of 8 days. Ketotifen fumarate salt was dissolved in sterilized normal saline (0.9% NaCl in ddH2O, w/v). Ketotifen 1 mg/kg, 5 mg/kg, 10 mg/kg, 25 mg/kg or equal volume of diluent (control group) was administered by intraperitoneal injection (i.p.) once a day for 8 days. Ketotifen treatment for MCA205 and K7M2wt tumor models started when the average tumor volume reached 60 mm^3 and 150 mm^3, respectively, and completed at 600 mm^3. At study endpoint, primary tumors were surgically excised and stored in 1×PBS at −80° C. until further processing. Planar dimensions (x, y) of tumor were monitored every 2-3 days using a digital caliper and tumor volume was estimated from the volume of an ellipsoid and assuming that the third dimension, z, is equal to sqrt(x y).
Following treatment, tumor growth (tumor volume and mass, see, FIGS. 2A and 2C for MCA205 tumors, and FIGS. 2B and 2D for K7M2wt tumors) was evaluated in the mice of each sarcoma group.

[8] = tested on: NIH3T3 cells; assay: NIH3T3 cell viability assessment; type: cell-based, murine; settings: ketotifen or control for 2 or 24 hours
[9] = tested on: NIH3T3 cells; assay: Myofibroblast differentiation in co-culture, αSMA and collagen I immunofluorescence; type: cell-based, murine; settings: co-culture with TGFβ and activated MCs
Experimental: Given that both MCs and fibroblasts are present in the TME, the consequences of MC activation on myofibroblasts was explored using a co-culture assay in which murine MC/9 MCs and NIH3T3 myofibroblasts were separated by a transwell chamber with micropores that only allowed chemical communication (FIG. 13A). In this system, degranulation efficiency was determined by measuring the concentration of β-hexosaminidase (β-hex) in the supernatant. MC degranulation was induced through exposure to compound 48/80 (C48/80), which binds to the MRGPRB2 receptor (the orthologue of the human G-protein-coupled receptor MRGPRX2). […] Co-cultures treated with a vehicle control and Triton X-100 were used as internal assay control to evaluate background and maximum β-hex release, respectively. Transforming growth factor (TGF)-β1 was used as a fibroblast activator due to its capacity to induce a myofibroblast phenotype of the NIH3T3 cells. MC/9 cells were cultivated with NIH3T3 cells for 24 hours and then treated with either ketotifen or TGFβ for additional 24 hours in low serum medium, followed by a 30 minute sensitization with C48/80.
To further explore the MC-fibroblast interaction, the differentiation process of NIH3T3 cells in the co-culture system was monitored by assaying levels of αSMA and collagen I, which are two markers of the myofibroblast phenotype, by immunofluorescence staining (FIG. 13C, FIG. 13D, and FIG. 13E).

With CN1CCC(=C2c3ccccc3CC(=O)c3sccc32)CC1 [ketotifen] the “antitumor effect (tumor volume and mass)” value [1] was “No subtherepautic dose of ketotifen exhibited an antitumor effect”, the “average value of elastic modulus by AFM” value [2] was “reduction” and the “collagen deposition (Picrosirius red)” value [3] was “significant reduction”. For the same compound, the “collagen deposition (Picrosirius red)” value [4] was “significant reduction”, the “antitumor effect (tumor volume and mass)” value [5] was “No subtherepautic dose of ketotifen exhibited an antitumor effect” and the “mast cell (MC) number as determined by CD117 protein levels” value [6] was “remain unaffected”. For the same compound, the splenomegaly [7] was “caused splenomegaly”, the NIH3T3 cell viability [8] was “did not significantly reduce” and the “myofibroblast differentiation (αSMA and collagen I protein expression)” value [9] was “impaired this myofibroblast differentiation”.
